Experimental data from PMC9954146, “Anti-Leukaemic Activity of Rilpivirine Is Mediated by Aurora A Kinase Inhibition” (Cancers, 2023).

Tests used:
Experiment in all cases: Kinase panel
Format in all cases: biochemical
Conditions in all cases: read-out: % Residual Activity
HIPK2(h) = target: T1, HIPK2(h) (Homo sapiens, UniProt Q9H2X6)
T1 construct: purchased Eurofins (KinaseProfiler)
Method: (§1) Kinome-wide selectivity of rilpivirine was measured using the kinase screening and profiling service of Eurofins Scientific (Le bois l’Evêque 86600. Celle-Lévescault, France) and Ki values were determined using radioisotope-based assays by Reaction Biology Corporation (Malvern, PA, USA). The experimental details of Eurofin Scientific and Reaction Biology services for relevant assays are available at https://www.eurofinsdiscoveryservices.com/services/in-Vitro-assays/kinases/kinase-profiler (accessed on 7 July 2021) and https://www.reactionbiology.com (accessed on 7 July 2021), respectively. Ki values were estimated from the corresponding IC50 values using the Cheng–Prusoff equation [21] and the Km (ATP) of individual kinase was used for IC50 determination.

PAK1(h) = target: T2, PAK1(h) (Homo sapiens, UniProt Q13153)
T2 construct: purchased Eurofins (KinaseProfiler)
Method: as §1

IKKα(h) = target: T3, IKKα(h) (Homo sapiens, UniProt O15111)
T3 construct: purchased Eurofins (KinaseProfiler)
Method: as §1

MAK(h) = target: T4, MAK(h) (Homo sapiens, UniProt P20794)
T4 construct: purchased Eurofins (KinaseProfiler)
T4 sequence (P20794 whole entry): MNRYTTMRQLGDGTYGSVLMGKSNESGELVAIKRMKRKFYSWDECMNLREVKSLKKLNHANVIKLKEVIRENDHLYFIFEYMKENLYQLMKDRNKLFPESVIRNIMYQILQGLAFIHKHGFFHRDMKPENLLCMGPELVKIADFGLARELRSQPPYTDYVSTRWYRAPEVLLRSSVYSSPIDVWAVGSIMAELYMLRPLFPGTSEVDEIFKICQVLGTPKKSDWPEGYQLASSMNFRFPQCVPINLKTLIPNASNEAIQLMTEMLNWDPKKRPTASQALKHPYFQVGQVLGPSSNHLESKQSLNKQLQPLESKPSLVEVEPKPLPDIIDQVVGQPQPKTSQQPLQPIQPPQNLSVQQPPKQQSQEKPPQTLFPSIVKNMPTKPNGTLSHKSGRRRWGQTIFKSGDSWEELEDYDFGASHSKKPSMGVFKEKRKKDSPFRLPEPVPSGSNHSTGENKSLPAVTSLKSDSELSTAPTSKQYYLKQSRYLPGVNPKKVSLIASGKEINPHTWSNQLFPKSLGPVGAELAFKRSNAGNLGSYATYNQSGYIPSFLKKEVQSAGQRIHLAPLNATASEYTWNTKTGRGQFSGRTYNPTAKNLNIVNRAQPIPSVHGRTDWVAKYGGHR
Method: as §1

cKit(V560G)(h) = target: T5, cKit(V560G)(h) (Homo sapiens, UniProt P10721, V560G)
T5 construct: purchased Eurofins (KinaseProfiler)
Method: as §1

CDK16/cyclinY(h) = target: T6, CDK16/cyclinY(h) (Homo sapiens, UniProt Q00536)
T6 construct: purchased Eurofins (KinaseProfiler)
Method: as §1

CHK2(R145W)(h) = target: T7, CHK2(R145W)(h) (Homo sapiens, UniProt O96017, R145W)
T7 construct: purchased Eurofins (KinaseProfiler)
Method: as §1

CaMKK2(h) = target: T8, CaMKK2(h) (Homo sapiens, UniProt Q96RR4)
T8 construct: purchased Eurofins (KinaseProfiler)
Method: as §1

TYK2(h) = target: T9, TYK2(h) (Homo sapiens, UniProt P29597)
T9 construct: purchased Eurofins (KinaseProfiler)
T9 sequence (P29597 whole entry): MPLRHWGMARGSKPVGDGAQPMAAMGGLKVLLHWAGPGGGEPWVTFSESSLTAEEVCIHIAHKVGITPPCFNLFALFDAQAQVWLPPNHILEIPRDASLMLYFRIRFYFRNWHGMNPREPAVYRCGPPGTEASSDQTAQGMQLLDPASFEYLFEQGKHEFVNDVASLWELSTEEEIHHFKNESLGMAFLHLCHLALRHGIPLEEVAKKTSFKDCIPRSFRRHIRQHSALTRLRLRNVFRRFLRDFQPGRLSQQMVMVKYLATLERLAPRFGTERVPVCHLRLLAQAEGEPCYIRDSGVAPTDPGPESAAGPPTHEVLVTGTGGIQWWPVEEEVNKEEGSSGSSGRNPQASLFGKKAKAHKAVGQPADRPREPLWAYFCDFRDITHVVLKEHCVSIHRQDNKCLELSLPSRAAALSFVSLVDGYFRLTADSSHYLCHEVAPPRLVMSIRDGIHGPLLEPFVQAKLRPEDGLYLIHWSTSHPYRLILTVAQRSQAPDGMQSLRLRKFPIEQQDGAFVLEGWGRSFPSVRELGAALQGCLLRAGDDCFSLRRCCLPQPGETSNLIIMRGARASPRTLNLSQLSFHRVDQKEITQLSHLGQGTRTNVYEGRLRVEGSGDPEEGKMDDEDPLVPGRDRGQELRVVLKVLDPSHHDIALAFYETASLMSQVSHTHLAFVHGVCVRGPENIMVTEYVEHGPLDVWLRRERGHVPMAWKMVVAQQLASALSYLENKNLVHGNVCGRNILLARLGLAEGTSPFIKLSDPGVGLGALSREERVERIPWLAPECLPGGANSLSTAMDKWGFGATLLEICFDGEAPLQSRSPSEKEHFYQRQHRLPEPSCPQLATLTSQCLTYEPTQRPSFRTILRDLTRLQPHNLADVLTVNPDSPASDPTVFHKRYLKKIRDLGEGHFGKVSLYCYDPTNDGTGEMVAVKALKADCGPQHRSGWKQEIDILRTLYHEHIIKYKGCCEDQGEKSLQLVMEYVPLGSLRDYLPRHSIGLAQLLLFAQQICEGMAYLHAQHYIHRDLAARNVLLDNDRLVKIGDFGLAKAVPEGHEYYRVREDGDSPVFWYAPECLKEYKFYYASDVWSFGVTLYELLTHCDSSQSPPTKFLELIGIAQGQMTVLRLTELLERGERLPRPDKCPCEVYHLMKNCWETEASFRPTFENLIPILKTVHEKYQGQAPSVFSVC
Method: as §1

Arg(h) = target: T10, Arg(h) (Homo sapiens, UniProt P42684)
T10 construct: purchased Eurofins (KinaseProfiler)
Method: as §1

[1] = target: PI3 Kinase (p110a/p65a)(h) (Homo sapiens, UniProt P42336)
Method: as §1

Flt3(D835Y)(h) = target: T11, Flt3(D835Y)(h) (Homo sapiens, UniProt P36888, D835Y)
T11 construct: purchased Eurofins (KinaseProfiler)
Method: as §1

Hck(h) = target: T12, Hck(h) (Homo sapiens, UniProt P08631)
T12 construct: purchased Eurofins (KinaseProfiler)
Method: as §1

Axl(h) = target: T13, Axl(h) (Homo sapiens, UniProt P30530)
T13 construct: purchased Eurofins (KinaseProfiler)
Method: as §1

Fer(h) = target: T14, Fer(h) (Homo sapiens, UniProt P16591)
T14 construct: purchased Eurofins (KinaseProfiler)
Method: as §1

Abl (H396P) (h) = target: T15, Abl (H396P) (h) (Homo sapiens, UniProt P00519, H396P)
T15 construct: purchased Eurofins (KinaseProfiler)
Method: as §1

PhKγ2(h) = target: T16, PhKγ2(h) (Homo sapiens, UniProt P15735)
T16 construct: purchased Eurofins (KinaseProfiler)
Method: as §1

STK32C(h) = target: T17, STK32C(h) (Homo sapiens, UniProt Q86UX6)
T17 construct: purchased Eurofins (KinaseProfiler)
T17 sequence (Q86UX6 whole entry): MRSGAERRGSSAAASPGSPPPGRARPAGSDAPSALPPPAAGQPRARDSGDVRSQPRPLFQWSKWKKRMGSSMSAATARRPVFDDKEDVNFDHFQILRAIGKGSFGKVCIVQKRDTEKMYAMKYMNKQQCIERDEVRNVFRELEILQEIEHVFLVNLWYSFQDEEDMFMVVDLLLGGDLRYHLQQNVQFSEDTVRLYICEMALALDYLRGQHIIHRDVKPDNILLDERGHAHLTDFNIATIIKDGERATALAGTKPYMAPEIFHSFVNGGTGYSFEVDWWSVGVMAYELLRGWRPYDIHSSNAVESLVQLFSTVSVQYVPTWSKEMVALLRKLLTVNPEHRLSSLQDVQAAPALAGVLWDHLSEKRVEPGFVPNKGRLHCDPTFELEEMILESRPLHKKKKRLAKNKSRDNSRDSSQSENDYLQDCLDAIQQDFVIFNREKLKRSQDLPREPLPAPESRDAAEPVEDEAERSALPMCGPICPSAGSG
Method: as §1

SAPK3(h) = target: T18, SAPK3(h) (Homo sapiens, UniProt P53778)
T18 construct: purchased Eurofins (KinaseProfiler)
T18 sequence (P53778 whole entry): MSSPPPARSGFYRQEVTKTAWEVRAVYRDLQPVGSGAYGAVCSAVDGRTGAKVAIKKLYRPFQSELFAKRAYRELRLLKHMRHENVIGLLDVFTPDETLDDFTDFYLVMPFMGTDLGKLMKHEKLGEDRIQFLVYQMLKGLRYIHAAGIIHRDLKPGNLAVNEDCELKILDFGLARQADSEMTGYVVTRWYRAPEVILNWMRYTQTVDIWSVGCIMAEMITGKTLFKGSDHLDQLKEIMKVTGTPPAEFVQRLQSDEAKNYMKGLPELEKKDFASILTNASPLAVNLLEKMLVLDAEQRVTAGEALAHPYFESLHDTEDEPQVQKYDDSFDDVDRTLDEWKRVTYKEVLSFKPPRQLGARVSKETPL
Method: as §1

[2] = target: PI3 Kinase (p110d/p85a)(m) (Mus musculus, UniProt O35904)
Method: as §1

PDHK4(h) = target: T19, PDHK4(h) (Homo sapiens, UniProt Q16654)
T19 construct: purchased Eurofins (KinaseProfiler)
Method: as §1

EphB1(h) = target: T20, EphB1(h) (Homo sapiens, UniProt P54762)
T20 construct: purchased Eurofins (KinaseProfiler)
Method: as §1

ULK3(h) = target: T21, ULK3(h) (Homo sapiens, UniProt Q6PHR2)
T21 construct: purchased Eurofins (KinaseProfiler)
Method: as §1

Wee1B(h) = target: T22, Wee1B(h) (Homo sapiens, UniProt P0C1S8)
T22 construct: purchased Eurofins (KinaseProfiler)
Method: as §1

Pim-3(h) = target: T23, Pim-3(h) (Homo sapiens, UniProt Q86V86)
T23 construct: purchased Eurofins (KinaseProfiler)
Method: as §1

JNK3(h) = target: T24, JNK3(h) (Homo sapiens, UniProt P53779)
T24 construct: purchased Eurofins (KinaseProfiler)
Method: as §1

MLK4(h) = target: T25, MLK4(h) (Homo sapiens, UniProt Q5TCX8)
T25 construct: purchased Eurofins (KinaseProfiler)
Method: as §1

DDR2(h) = target: T26, DDR2(h) (Homo sapiens, UniProt Q16832)
T26 construct: purchased Eurofins (KinaseProfiler)
Method: as §1

MOK(h) = target: T27, MOK(h) (Homo sapiens, UniProt Q9UQ07)
T27 construct: purchased Eurofins (KinaseProfiler)
Method: as §1

Syk(h) = target: T28, Syk(h) (Homo sapiens, UniProt P43405)
T28 construct: purchased Eurofins (KinaseProfiler)
Method: as §1

Tie2(Y897S)(h) = target: T29, Tie2(Y897S)(h) (Homo sapiens, UniProt Q02763, Y897S)
T29 construct: purchased Eurofins (KinaseProfiler)
Method: as §1

Abl(Y253F)(h) = target: T30, Abl(Y253F)(h) (Homo sapiens, UniProt P00519, Y253F)
T30 construct: purchased Eurofins (KinaseProfiler)
Method: as §1

PDGFRβ(h) = target: T31, PDGFRβ(h) (Homo sapiens, UniProt P09619)
T31 construct: purchased Eurofins (KinaseProfiler)
T31 sequence (P09619 33-1106): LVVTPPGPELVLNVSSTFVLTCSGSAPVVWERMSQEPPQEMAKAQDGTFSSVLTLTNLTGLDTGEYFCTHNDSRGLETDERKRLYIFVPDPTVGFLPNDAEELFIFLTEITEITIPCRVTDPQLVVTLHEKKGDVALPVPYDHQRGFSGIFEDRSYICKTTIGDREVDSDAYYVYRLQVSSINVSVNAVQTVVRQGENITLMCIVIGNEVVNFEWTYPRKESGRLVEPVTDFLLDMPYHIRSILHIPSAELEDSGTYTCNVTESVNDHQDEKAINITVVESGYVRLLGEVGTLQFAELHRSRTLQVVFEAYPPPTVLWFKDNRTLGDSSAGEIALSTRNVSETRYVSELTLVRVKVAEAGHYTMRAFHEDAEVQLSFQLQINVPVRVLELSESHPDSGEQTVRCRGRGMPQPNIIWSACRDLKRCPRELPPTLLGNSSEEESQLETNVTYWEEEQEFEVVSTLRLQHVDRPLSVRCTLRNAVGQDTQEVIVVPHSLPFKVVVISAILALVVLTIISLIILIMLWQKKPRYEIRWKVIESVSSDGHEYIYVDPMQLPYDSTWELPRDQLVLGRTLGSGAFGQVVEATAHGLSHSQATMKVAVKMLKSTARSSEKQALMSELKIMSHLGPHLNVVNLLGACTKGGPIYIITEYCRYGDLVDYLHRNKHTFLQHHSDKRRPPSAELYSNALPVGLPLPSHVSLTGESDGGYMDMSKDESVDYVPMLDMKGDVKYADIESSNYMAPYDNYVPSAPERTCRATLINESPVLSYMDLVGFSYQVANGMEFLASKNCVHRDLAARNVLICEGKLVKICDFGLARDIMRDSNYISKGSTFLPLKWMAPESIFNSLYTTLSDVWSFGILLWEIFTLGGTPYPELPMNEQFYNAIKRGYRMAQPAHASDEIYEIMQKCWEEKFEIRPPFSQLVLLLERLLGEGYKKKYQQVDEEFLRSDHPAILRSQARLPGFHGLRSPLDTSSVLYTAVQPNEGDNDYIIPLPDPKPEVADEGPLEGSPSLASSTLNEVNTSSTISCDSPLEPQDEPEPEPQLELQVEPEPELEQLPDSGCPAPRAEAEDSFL
Method: as §1

EphA7(h) = target: T32, EphA7(h) (Homo sapiens, UniProt Q15375)
T32 construct: purchased Eurofins (KinaseProfiler)
T32 sequence (Q15375 28-998): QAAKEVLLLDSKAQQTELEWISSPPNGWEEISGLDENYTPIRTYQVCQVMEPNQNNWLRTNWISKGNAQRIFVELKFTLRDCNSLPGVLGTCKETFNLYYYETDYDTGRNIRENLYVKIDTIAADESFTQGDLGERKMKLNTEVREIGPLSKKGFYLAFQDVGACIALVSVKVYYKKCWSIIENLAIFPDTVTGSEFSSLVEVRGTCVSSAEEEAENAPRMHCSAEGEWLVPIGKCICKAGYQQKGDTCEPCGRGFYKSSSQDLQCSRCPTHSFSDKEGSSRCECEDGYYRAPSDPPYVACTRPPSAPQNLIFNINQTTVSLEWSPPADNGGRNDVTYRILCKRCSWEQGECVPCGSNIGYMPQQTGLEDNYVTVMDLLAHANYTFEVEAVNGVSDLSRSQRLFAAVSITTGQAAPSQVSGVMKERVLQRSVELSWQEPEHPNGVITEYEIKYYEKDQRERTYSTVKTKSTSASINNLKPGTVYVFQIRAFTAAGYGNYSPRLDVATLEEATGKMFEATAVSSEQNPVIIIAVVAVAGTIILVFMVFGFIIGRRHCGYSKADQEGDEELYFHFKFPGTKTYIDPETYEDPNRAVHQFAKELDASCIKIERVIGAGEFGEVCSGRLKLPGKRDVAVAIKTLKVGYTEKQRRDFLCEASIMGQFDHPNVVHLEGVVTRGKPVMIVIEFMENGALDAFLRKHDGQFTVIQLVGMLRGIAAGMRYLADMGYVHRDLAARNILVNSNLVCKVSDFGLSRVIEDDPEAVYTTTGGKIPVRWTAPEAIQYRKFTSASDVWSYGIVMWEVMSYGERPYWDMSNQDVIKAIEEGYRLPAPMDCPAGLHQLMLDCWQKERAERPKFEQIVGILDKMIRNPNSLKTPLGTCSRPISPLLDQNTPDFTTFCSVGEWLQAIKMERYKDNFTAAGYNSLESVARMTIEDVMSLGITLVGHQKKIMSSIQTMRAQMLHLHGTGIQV
Method: as §1

[3] = target: T33, PI3 Kinase (p110a/p85a)(m) (Mus musculus, UniProt P42337)
T33 construct: purchased Eurofins (KinaseProfiler)
Method: as §1

[4] = target: T34, PI3 Kinase (p110d/p85a)(h) (Homo sapiens, UniProt O00329)
T34 construct: purchased Eurofins (KinaseProfiler)
Method: as §1

Rse(h) = target: T35, Rse(h) (Homo sapiens, UniProt Q06418)
T35 construct: purchased Eurofins (KinaseProfiler)
Method: as §1

MKK4(m) = target: T36, MKK4(m) (Mus musculus, UniProt P47809)
T36 construct: purchased Eurofins (KinaseProfiler)
Method: as §1

What does the source list for `Cc1cc(/C=C/C#N)cc(C)c1Nc1ccnc(Nc2ccc(C#N)cc2)n1` [rilpivirine, (E)-4-((4-((4-(2-cyanoethenyl)-2,6-dimethylphenyl)amino)pyrimidin-2-yl)amino)benzonitrile]?
remaining activity at 1 µM (HIPK2(h)): 85%; remaining activity at 1 µM (PAK1(h)): 92%; remaining activity at 1 µM (IKKα(h)): 85%; remaining activity at 1 µM (MAK(h)): 84%; remaining activity at 1 µM (cKit(V560G)(h)): 74%; remaining activity at 1 µM (CDK16/cyclinY(h)): 96%; remaining activity at 1 µM (CHK2(R145W)(h)): 76%; remaining activity at 1 µM (CaMKK2(h)): 109%; remaining activity at 1 µM (TYK2(h)): 52%; remaining activity at 1 µM (Arg(h)): 70%; remaining activity at 1 µM [1]: 93%; remaining activity at 1 µM (Flt3(D835Y)(h)): 94%; remaining activity at 1 µM (Hck(h)): 50%; remaining activity at 1 µM (Axl(h)): 98%; remaining activity at 1 µM (Fer(h)): 91%; remaining activity at 1 µM (Abl (H396P) (h)): 71%; remaining activity at 1 µM (PhKγ2(h)): 83%; remaining activity at 1 µM (STK32C(h)): 94%; remaining activity at 1 µM (SAPK3(h)): 106%; remaining activity at 1 µM [2]: 99%; remaining activity at 1 µM (PDHK4(h)): 94%; remaining activity at 1 µM (EphB1(h)): 94%; remaining activity at 1 µM (ULK3(h)): 94%; remaining activity at 1 µM (Wee1B(h)): 94%; remaining activity at 1 µM (Pim-3(h)): 89%; remaining activity at 1 µM (JNK3(h)): 100%; remaining activity at 1 µM (MLK4(h)): 95%; remaining activity at 1 µM (DDR2(h)): 82%; remaining activity at 1 µM (MOK(h)): 92%; remaining activity at 1 µM (Syk(h)): 79%; remaining activity at 1 µM (Tie2(Y897S)(h)): 96%; remaining activity at 1 µM (Abl(Y253F)(h)): 58%; remaining activity at 1 µM (PDGFRβ(h)): 93%; remaining activity at 1 µM (EphA7(h)): 96%; remaining activity at 1 µM [3]: 100%; remaining activity at 1 µM [4]: 89%; remaining activity at 1 µM (Rse(h)): 66%; remaining activity at 1 µM (MKK4(m)): 84%
